Experimental findings from PMC9964602, “Myxinidin-Derived Peptide against Biofilms Caused by Cystic Fibrosis Emerging Pathogens” (International Journal of Molecular Sciences, 2023) are described below.

Where two headings read alike, the source gives them in different places. Where a SMILES comes first, the peptide text is derived from it. [ ]: non-standard residue; d: D form. Dap = NC[C@H](N)C(=O)O; Aib = CC(C)(N)C(=O)O

One data set has as its system A. xylosoxidans DSM 2402. Briefly: microbe, parasite or virus in culture. It is filed as cell-based, Achromobacter xylosoxidans. The method, then:
(§1) Candida albicans ATCC 90028, Achromobacter xylosoxidans DSM 2402, and Stenotrophomonas maltophilia DSM 50170 were used in this study. Microbial strains were grown in Tryptone Soya Broth (TSB, VWR chemicals, Leuven, Belgium), supplemented with 0.1% glucose only for C. albicans at 37 °C overnight. Then, cells were harvested by centrifugation at 5000 rpm, 4 °C for 10 min, followed by washing in Phosphate Buffered Saline (PBS, Oxoid Ltd., Basingstoke, UK) three times. Standardized 1 × 10^6 CFU mL^-^1 inoculum was used in the next experiments. The minimum inhibitory concentrations (MIC) of WMR-4 against C. albicans, A. xylosoxidans, and S. maltophilia were determined using a broth microdilution method accord-ing to CLSI M27-A3 and […]-A9 guidelines. Concentrations of WMR-4 from 0.5 to 50 μM were added to wells of a 96-well microplate containing 1 × 10^6 CFU mL^-1 cells. Fluconazole at a concentration range from 1 to 50 μM and meropenem at a concentration range from 10 to 200 μM were used as control. The plate was incubated at 37 °C for 24/48 h due to poor growth after 24 h for the two bacterial species. Next, the absorbance at 590 nm was read using a microplate reader (Synergy H4; BioTek Instruments, Agilent Technologies, Winooski, VT, USA). MIC value was defined as a lowest concentration of WMR and analogues able to inhibit total microbial growth.

Another data set has as its system C. albicans ATCC 90028. It is filed as cell-based, Candida albicans. The note with it: ATCC 90028, 48 h. The method, then:
as §1

The nature of a further data set: in vitro. It is filed as in vitro ADME, bovine. To be noted: serum. Here is the method: The proteolytic stability of WMR and WMR-4 were determined in bovine serum acquired from ThermoFisher Scientific (Milan, Italy). Peptides were dissolved in sterile water to prepare stock solutions, then incubated with 50% of bovine serum to obtain a final concentration of 200 μM [69]. The mixture peptide/serum was incubated at 37 ± 1 °C for different times (0.25, 0.50, 1, 2, 3, 4, 5, and 16 h). At each pre-established time, an aliquot of reaction was taken, and acetonitrile was added to favor the precipitation of serum proteins. Then, the solution was cooled at 4 °C and centrifuged for 15 min at 13,000× g rpm. The supernatant was analyzed by HPLC in a Phenomenex Jupiter 4 μm Proteo 90 Å 250 × 21.20 mm column with a linear gradient of solvent B (0.1% TFA in acetonitrile) in solvent A (0.1% TFA in water) from 5 to 70% in 20 min with UV detection at 210 nm and a flow rate of 1 mL/min.

In the next data set the test system is S. maltophilia DSM 50170. The data set can be described thus: microbe, parasite or virus in culture. It is filed as cell-based, Stenotrophomonas maltophilia. Here is the method:
as §1

As usually defined, the fraction remaining is what is left of the initial amount, in per cent. On to `CC[C@H](C)[C@H](NC(=O)[C@H](CCCNC(=N)N)NC(=O)[C@H](CCCNC(=N)N)NC(=O)[C@@H](NC(=O)C(C)(C)NC(=O)[C@@H](N)Cc1c[nH]c2ccccc12)[C@@H](C)CC)C(=O)N[C@@H](CC(C)C)C(=O)N[C@@H](CCCCN)C(=O)N[C@@H](Cc1ccc(O)cc1)C(=O)NCC(=O)N[C@@H](CCCCN)C(=O)N[C@@H](CCCNC(=N)N)C(=O)N[C@H](CO)C(=O)N[C@H](CCCCN)C(N)=O` [WMR-4] (H-W[Aib]IRRILKYGKR[dS][dK]-NH2), for which the MIC in the data set on A. xylosoxidans DSM 2402 (DSM 2402, 48 h) was determined as 25 µM; with C. albicans ATCC 90028, 50 µM; in the data set with S. maltophilia DSM 50170 (DSM 50170, 48 h) it was 25 µM. The same compound had a fraction remaining at 5 h, 200 μM in the data set “in vitro” of 70%. For the same compound, the fraction remaining at 16 h, 200 μM in “in vitro” is ~30%.
For the compound `CC[C@H](C)[C@H](NC(=O)[C@H](CCCNC(=N)N)NC(=O)[C@H](CCCNC(=N)N)NC(=O)[C@@H](NC(=O)C(C)(C)NC(=O)[C@@H](N)Cc1c[nH]c2ccccc12)[C@@H](C)CC)C(=O)N[C@@H](CC(C)C)C(=O)N[C@@H](CCCCN)C(=O)N[C@@H](Cc1ccc(O)cc1)C(=O)NCC(=O)N[C@@H](CCCCN)C(=O)N[C@@H](CCCNC(=N)N)C(=O)N[C@@H](CO)C(=O)N[C@@H](CCCCN)C(N)=O` [WMR-3] (H-W[Aib]IRRILKYGKRSK-NH2), the MIC in the data set with A. xylosoxidans DSM 2402 (DSM 2402, 48 h) was > 50 µM; with S. maltophilia DSM 50170 (DSM 50170, 48 h) it was > 50 µM.
Turning to `CC[C@H](C)[C@H](NC(=O)CNC(=O)[C@@H](N)Cc1c[nH]c2ccccc12)C(=O)N[C@@H](CCCNC(=N)N)C(=O)N[C@@H](CCCNC(=N)N)C(=O)N[C@H](C(=O)N[C@@H](CC(C)C)C(=O)N[C@@H](CCCCN)C(=O)N[C@@H](Cc1ccc(O)cc1)C(=O)NCC(=O)N[C@@H](CCCCN)C(=O)N[C@@H](CCCNC(=N)N)C(=O)N[C@@H](CO)C(=O)N[C@@H](CCCCN)C(N)=O)[C@@H](C)CC` [WMR] (H-WGIRRILKYGKRSK-NH2), the MIC in the data set with A. xylosoxidans DSM 2402 (DSM 2402, 48 h) was determined as 50 µM. In the data set “in vitro”, the fraction remaining at 0.25 h, 200 μM was 75%; the fraction remaining at 0.5 h, 200 μM came out at 75%; the fraction remaining at 1 h, 200 μM came out at 68%; the share remaining at 2 h, 200 μM is 53%. In the data set “in vitro”, this compound registered a fraction remaining at 3 h, 200 μM of 36% and an amount remaining at 5 h, 200 μM of 20%. Further, the MIC in the data set on S. maltophilia DSM 50170 (DSM 50170, 48 h) is 50 µM.
As for `C[C@@H](O)[C@H]1C(=O)N2C(C(=O)O)=C(S[C@@H]3CN[C@H](C(=O)N(C)C)C3)[C@H](C)[C@H]12` [MEM, meropenem, reference compound], the MIC in the data set with A. xylosoxidans DSM 2402 (Achromobacter xylosoxidans, DSM2402, A. xylosoxidans DSM 2402, control drug, value outside parentheses, read-out: MIC) was found to be 65 mg/L; with S. maltophilia DSM 50170 (Stenotrophomonas maltophilia, DSM50170, S. maltophilia DSM 50170, control drug, value outside parentheses, read-out: MIC), 130 mg/L.
Consider `CC[C@H](C)[C@H](NC(=O)CNC(=O)[C@@H](N)Cc1c[nH]c2ccccc12)C(=O)N[C@@H](CCCNC(=N)N)C(=O)N[C@@H](CCCNC(=N)N)C(=O)N[C@H](C(=O)N[C@@H](CC(C)C)C(=O)N[C@@H](CCCCN)C(=O)N[C@@H](Cc1ccc(O)cc1)C(=O)NCC(=O)N[C@@H](CCCCN)C(=O)N[C@@H](CCCNC(=N)N)C(=O)N[C@H](CO)C(=O)N[C@@H](CCCCN)C(N)=O)[C@@H](C)CC` [WMR-2] (H-WGIRRILKYGKR[dS]K-NH2), for which the MIC in the data set on A. xylosoxidans DSM 2402 (DSM 2402, 48 h) is > 50 µM; in the data set on S. maltophilia DSM 50170 (DSM 50170, 48 h), > 50 µM.
Take `CC[C@H](C)[C@H](NC(=O)CNC(=O)[C@@H](N)Cc1c[nH]c2ccccc12)C(=O)N[C@@H](CCCNC(=N)N)C(=O)N[C@@H](CCCNC(=N)N)C(=O)N[C@H](C(=O)N[C@@H](CC(C)C)C(=O)N[C@@H](CCCCN)C(=O)N[C@@H](Cc1ccc(O)cc1)C(=O)NCC(=O)N[C@@H](CCCCN)C(=O)N[C@@H](CCCNC(=N)N)C(=O)N[C@@H](CO)C(=O)N[C@@H](CN)C(N)=O)[C@@H](C)CC` [WMR-5] (H-WGIRRILKYGKRS[Dap]-NH2): the MIC came to 25 µM in the data set with A. xylosoxidans DSM 2402 (DSM 2402, 48 h) and 25 µM with S. maltophilia DSM 50170 (DSM 50170, 48 h).
As for `CC[C@H](C)[C@H](NC(=O)CNC(=O)[C@@H](N)Cc1c[nH]c2ccccc12)C(=O)N[C@@H](CCCNC(=N)N)C(=O)N[C@@H](CCCNC(=N)N)C(=O)N[C@H](C(=O)N[C@@H](CC(C)C)C(=O)N[C@@H](CCCCN)C(=O)N[C@@H](Cc1ccc(O)cc1)C(=O)NCC(=O)N[C@@H](CCCCN)C(=O)N[C@@H](CCCNC(=N)N)C(=O)N[C@@H](CO)C(=O)N[C@H](CCCCN)C(N)=O)[C@@H](C)CC` [WMR-1] (H-WGIRRILKYGKRS[dK]-NH2), the MIC in the data set on A. xylosoxidans DSM 2402 (DSM 2402, 48 h) is > 50 µM; in the data set with S. maltophilia DSM 50170 (DSM 50170, 48 h), > 50 µM.
